The values below come from ChEMBL document CHEMBL1147512, “Development of subtype-selective ligands as antagonists at nicotinic receptors mediating nicotine-evoked dopamine release” (Bioorg Med Chem Lett, 2004).

Usually Ki stands for a measure of affinity in units of concentration, obtained from inhibition or displacement. For orientation: IC50 means the midpoint of a concentration-inhibition curve. A high value points to lower potency.

Each structure is given as a SMILES string.

Assay [1] deals with T1, Neuronal acetylcholine receptor subunit alpha-7 (Rattus norvegicus, UniProt Q05941). In words: Inhibition of [3H]-MLA binding to Nicotinic acetylcholine receptor alpha7 in rat brain. Type of assay: tissue-based.
T1 sequence (Q05941 whole entry): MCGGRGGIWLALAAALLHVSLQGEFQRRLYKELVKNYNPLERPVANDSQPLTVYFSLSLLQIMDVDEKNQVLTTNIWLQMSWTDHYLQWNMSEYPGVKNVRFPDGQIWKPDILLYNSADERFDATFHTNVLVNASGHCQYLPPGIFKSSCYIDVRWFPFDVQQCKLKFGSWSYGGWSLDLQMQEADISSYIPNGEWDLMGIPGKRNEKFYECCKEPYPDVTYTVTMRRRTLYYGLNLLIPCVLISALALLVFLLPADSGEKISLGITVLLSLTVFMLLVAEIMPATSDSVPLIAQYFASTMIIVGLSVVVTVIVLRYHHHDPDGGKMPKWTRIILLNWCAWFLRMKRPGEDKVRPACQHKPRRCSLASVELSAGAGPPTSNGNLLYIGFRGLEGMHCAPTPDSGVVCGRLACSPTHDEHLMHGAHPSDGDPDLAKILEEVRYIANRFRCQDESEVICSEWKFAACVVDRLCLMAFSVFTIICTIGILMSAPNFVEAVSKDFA
In assay [2] the target is T2, Neuronal acetylcholine receptor; alpha4/beta2 (Rattus norvegicus, UniProt P09483+P12390). In words: Inhibition of [3H]nicotine binding to Nicotinic acetylcholine receptor alpha4-beta2 in rat brain. Type of assay: tissue-based.
T2 sequence (P09483 whole entry): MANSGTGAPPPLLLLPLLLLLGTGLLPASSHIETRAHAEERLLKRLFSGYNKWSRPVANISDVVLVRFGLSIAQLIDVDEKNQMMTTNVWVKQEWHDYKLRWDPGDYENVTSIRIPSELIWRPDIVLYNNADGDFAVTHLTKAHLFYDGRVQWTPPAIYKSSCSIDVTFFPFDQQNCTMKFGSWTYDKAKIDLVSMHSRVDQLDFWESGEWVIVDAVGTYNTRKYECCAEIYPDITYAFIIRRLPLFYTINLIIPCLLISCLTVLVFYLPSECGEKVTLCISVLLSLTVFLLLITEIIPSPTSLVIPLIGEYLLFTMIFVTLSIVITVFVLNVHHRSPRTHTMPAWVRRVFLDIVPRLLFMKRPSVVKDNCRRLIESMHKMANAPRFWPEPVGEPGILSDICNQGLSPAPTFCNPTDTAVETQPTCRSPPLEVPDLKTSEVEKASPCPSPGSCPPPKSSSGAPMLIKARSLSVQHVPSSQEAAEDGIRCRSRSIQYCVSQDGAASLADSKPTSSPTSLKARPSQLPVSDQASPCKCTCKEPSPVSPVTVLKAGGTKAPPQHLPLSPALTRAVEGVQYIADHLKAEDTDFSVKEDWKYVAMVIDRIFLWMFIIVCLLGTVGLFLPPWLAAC
T2 sequence (P12390 whole entry): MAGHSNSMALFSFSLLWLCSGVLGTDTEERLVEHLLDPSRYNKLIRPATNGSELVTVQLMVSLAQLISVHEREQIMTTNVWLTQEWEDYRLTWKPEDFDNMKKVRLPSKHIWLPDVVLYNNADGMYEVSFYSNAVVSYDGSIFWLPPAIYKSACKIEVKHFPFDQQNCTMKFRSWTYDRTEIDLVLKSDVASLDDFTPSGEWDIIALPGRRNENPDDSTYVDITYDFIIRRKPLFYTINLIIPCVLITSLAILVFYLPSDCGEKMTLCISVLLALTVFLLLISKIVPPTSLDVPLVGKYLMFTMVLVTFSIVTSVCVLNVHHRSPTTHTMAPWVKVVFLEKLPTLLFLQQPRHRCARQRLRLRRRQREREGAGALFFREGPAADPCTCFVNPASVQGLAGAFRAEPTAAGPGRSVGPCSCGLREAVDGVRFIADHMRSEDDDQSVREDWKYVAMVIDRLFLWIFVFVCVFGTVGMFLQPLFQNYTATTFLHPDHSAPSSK
For assay [3], the target named is T1, Neuronal acetylcholine receptor subunit alpha-7. In words: Inhibition of [3H]-MLA binding to Nicotinic acetylcholine receptor alpha-7 in rat brain. The format is tissue-based.
Assay [4] addresses T2, Neuronal acetylcholine receptor; alpha4/beta2. In words: Inhibitory activity against nAChR mediated nicotine-evoked [3H]DA overflow using rat striatal slices. The format is functional.
For assay [5] the target is unchanged. In words: Inhibition of [3H]nicotine binding to Nicotinic acetylcholine receptor alpha4-beta2 in rat brain. Type of assay: tissue-based.
The next assay is filed under the species Rattus norvegicus. In words: Inhibitory activity against nAChR mediated nicotine-evoked [3H]DA overflow using rat striatal slices; Not active. Type of assay: functional, organism-based.

Compound `CCCCCCCC[n+]1cccc([C@@H]2CCCN2C)c1` had an inhibition constant Ki in assay [1] of 12000 nM. This lies in the double-digit micromolar range.

For the compound `CCCCCCCCCCCC[n+]1ccc2c(c1)[C@H]1[C@@H](CC2)CCN1C.[I-]`, the Ki entry in assay [2] and in assay [3] was “Not Active” each time. This compound returned an IC50 in assay [4] of 220 nM.

Regarding `CCCCCCCC[n+]1ccc2c(c1)[C@H]1[C@@H](CC2)CCN1C.[I-]`, the Ki entry in assay [2] and in assay [3] was “Not Active” each time. In assay [4], the IC50 is 80 nM.

For the compound `CCCCCCCC[n+]1cccc2c1CC[C@@H]1CCN(C)[C@H]21.[I-]`, the Ki result in assay [2] and in assay [3] was “Not Active” in each case. In addition, inhibition in assay [4] was half-maximal at 40 nM (IC50).

On to `CCCCCCCCCCC[n+]1cccc2c1CC[C@@H]1CCN(C)[C@H]21.[I-]`, for which the Ki result in assay [2] and in assay [3] was “Not Active” throughout. Moreover, in assay [4], inhibition was half-maximal at 40 nM (IC50).

On to `CCCCCCCCCC[n+]1cccc2c1CC[C@@H]1CCN(C)[C@H]21.[I-]`, for which the Ki result in assay [2] and in assay [3] was “Not Active” in each case. Also, the IC50 in assay [4] came out at 30 nM.

`CCCCCCCCC[n+]1ccc2c(c1)[C@H]1[C@@H](CC2)CCN1C.[I-]`: the Ki entry in assay [2] and in assay [3] was “Not Active” throughout. This compound gave an IC50 in assay [4] of 660 nM.

`CCCCCCCCCCC[n+]1ccc2c(c1)[C@H]1[C@@H](CC2)CCN1C.[I-]`: the Ki entry in assay [2] and in assay [3] was “Not Active” each time. Further, the IC50 in assay [4] was determined as 40 nM.

`CCCCCCCCCCCC[n+]1ccccc1.[I-]`: the Ki result in assay [2] and in assay [3] was “Not Active” throughout. The compound also gave an IC50 in assay [4] of 260 nM.

Turning to `CCCCCCCCC[n+]1cccc2c1CC[C@@H]1CCN(C)[C@H]21.[I-]`, the Ki result in assay [2] and in assay [3] was “Not Active” in each case. This compound also came in with an IC50 in assay [4] of 310 nM.

Regarding `c1cc[n+](CCCCCCCCCCCCCC[n+]2ccccc2)cc1`, the figures for the Ki in assay [1] and in assay [5] were 33000 nM and 9150 nM, respectively. The compound further came in with an IC50 in assay [4] of 1000 nM.

Consider `CN1CCC[C@H]1c1ccc[n+](CCCCCCCCCCCCCC[n+]2cccc([C@@H]3CCCN3C)c2)c1.[Br-].[Br-]`, for which the values for the Ki entry in assay [3] and in assay [5] were “Not Active” and 1950 nM, respectively. In assay [4], this compound registered an IC50 of 170 nM.

Consider `CCCCCCCCCCCCCCCCCCCC[n+]1ccccc1.[Br-]`, for which the Ki result in assay [2] and in assay [3] was “Not Active” in each case. In assay [4], this compound had an IC50 of 120 nM.

For `CCCCCCCCCCCC[n+]1cccc2c1CC[C@@H]1CCN(C)[C@H]21.[I-]`, the half-maximal inhibitory concentration (IC50) entry in the assay listed under Rattus norvegicus is given as “Not Active”. Further, the Ki result in assay [2] and in assay [3] was “Not Active” throughout.

`CCCCCCCCCC[n+]1ccccc1.[I-]`: the Ki entry is “Not Active” in assay [3] and 17000 nM in assay [5]. Besides, the IC50 in assay [4] was 130 nM.

With `CCCCCCCCCCCCCCC[n+]1ccccc1.[Br-]`, the values for the Ki result in assay [3] and in assay [5] were “Not Active” and 38000 nM, respectively. The compound further came in with a 50% inhibitory concentration (IC50) in assay [4] of 320 nM.

`CCCCCCCCCCCC[n+]1cccc([C@@H]2CCCN2C)c1.[I-]`: the figures for the Ki result in assay [3] and in assay [5] were “Not Active” and 140 nM, respectively. Moreover, the IC50 in assay [4] came out at 9 nM.

On to `CCCCCCCCCC[n+]1cccc([C@@H]2CCCN2C)c1.[I-]`, for which, in the assay filed under Rattus norvegicus, the IC50 result is “Not Active”. The inhibition constant (Ki) result is “Not Active” in assay [3] and 90 nM in assay [5].

For `CCCCCCCCCC[n+]1ccc2c(c1)[C@H]1[C@@H](CC2)CCN1C.[I-]`, the inhibition constant Ki entry in assay [2] and in assay [3] was “Not Active” in each case. Moreover, in assay [4], the IC50 was 580 nM.
